# From paper PMC3119665, “A New Drug Design Targeting the Adenosinergic System for Huntington's Disease” (PLoS ONE, 2011)
# What was measured:
# R6/2 mice = conditions: cited from earlier work
# [1] = molecular target: Adenosine transporter (ENT1); conditions: ENT1 inhibitor reference value; no reference given; cited from earlier work
# PC12 cells = assay: MTT metabolism assay, serum-deprived PC12 cells; assay type: cell-based, rat; conditions: 24 h
# Procedure: Survival was assessed by the 3-(4,5-dimethylthiazol-2-yl)-2,5-diphenyltetrazolium bromide (MTT) metabolism assay as described elsewhere, [65]. In brief, cells grown on 150-mm plates were washed three times with PBS and resuspended in DMEM. Suspended cells (1×10^4 cells) were plated on 96-well plates and treated with or without the indicated reagent. After incubation for 24 h, MTT (0.5 mg/ml) was added to the medium and incubated for 3 h. After discarding the medium, DMSO (100 µl) was then applied to the well to dissolve the formazan crystals derived from the mitochondrial cleavage of the tetrazolium ring by live cells. The absorbance at 570/630 nm in each well was measured on a micro-enzyme-linked immunosorbent assay reader.
# A2AR = molecular target: T1, A2AR (Rattus norvegicus, UniProt P30543); assay: cAMP assay in PC12 cells; assay type: cell-based; conditions: PC12 cells, T1-11 10 µM, SCH 1 µM, 20 min
# T1 construct: Treatment of PC12 cells with T1-11 dose-dependently elevated the cellular cAMP levels; endogenous in cells; host or cells: PC12
# Procedure: PC12 cells were plated at the density of 5×10^5 cells/well (on 12-well plates) and incubated with the indicated reagent(s) for the desired period of time. Cells were washed twice with ice-cold Locke's solution (150 mM NaCl, 5.6 mM KCl, 5 mM glucose, 1 mM MgCl2, and 10 mM HEPES, adjusted to pH 7.4). Cellular cAMP was extracted by adding 0.3 ml of 0.1 M HCl to each well and incubating this for 10 min on ice.
# T1 sequence (P30543 whole entry): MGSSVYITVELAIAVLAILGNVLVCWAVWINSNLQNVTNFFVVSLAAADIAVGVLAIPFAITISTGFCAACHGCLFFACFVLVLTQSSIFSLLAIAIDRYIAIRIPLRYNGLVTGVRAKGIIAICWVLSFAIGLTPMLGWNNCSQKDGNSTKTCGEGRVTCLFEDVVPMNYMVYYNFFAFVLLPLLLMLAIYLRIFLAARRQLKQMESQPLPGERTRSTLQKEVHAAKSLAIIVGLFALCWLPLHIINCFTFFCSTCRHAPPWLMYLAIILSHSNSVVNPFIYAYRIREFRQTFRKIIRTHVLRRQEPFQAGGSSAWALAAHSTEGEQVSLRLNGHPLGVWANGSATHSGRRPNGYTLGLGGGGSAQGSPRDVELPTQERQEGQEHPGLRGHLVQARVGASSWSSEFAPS
structure (smiles),measurement,setting,value
CCNC(=O)[C@H]1O[C@@H](n2cnc3c(N)nc(NCCc4ccc(CCC(=O)O)cc4)nc32)[C@H](O)[C@@H]1O [CGS],"Effects on major HD symptoms (brain atrophy, striatal aggregates, deteriorated motor coordination)",R6/2 mice,provides beneficial effects on several major HD symptoms
"O=[N+]([O-])c1ccc(CSc2ncnc3c2ncn3[C@@H]2O[C@H](CO)[C@@H](O)[C@H]2O)cc1 [NBTI, 6-[(4-nitrobenzyl)thio]-9-β-D-ribofuranosylpurine]",Ki,[1],0.85 nM
Nc1nc2c(cnn2CCc2ccccc2)c2nc(-c3ccco3)nn12 [SCH58216],Effect of A2AR antagonist on T1-11's prevention of serum deprivation-induced death,PC12 cells,blocked the effect of T1-11
same,Motor coordination,R6/2 mice; treatment for 1 week,worsened motor coordination
same,Effect on T1-11-induced elevation in the cAMP level,A2AR,effectively blocked the T1-11-induced elevation in the cAMP level
Nc1nc(NCCc2ccc(O)cc2)nc2nc(-c3ccco3)nn12 [ZM241385],Effect of A2AR antagonist on T1-11's prevention of serum deprivation-induced death,PC12 cells,blocked the effect of T1-11
